Measurements: patent US8354436B2 (4SC Discovery GmbH, priority 2011, dated 2013)
Where two headings read alike, the source gives them in different places.

How the values were obtained:
Assay type in all cases: cell-based
Conditions in all cases: 48 hours
IFN-γ = IFN-γ production by PHA-stimulated human PBMC (OptEIA human IFN-g ELISA)
Method in brief: (§1)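 Compounds are titrated semilogarithmically for IC50, or tested at 10, 1, 0.1 and 0.01 μM for screening, on healthy-donor PBMC activated with 2 μg/ml PHA. After 48 h, secreted cytokine is measured in supernatant.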

IL-17FF = IL-17FF production by PHA-stimulated human PBMC (human IL-17F ELI-Pair)
Method in brief: as §1

[1] = system: PBMC from healthy human donors; experiment: T cell proliferation assay (PHA-stimulated human PBMC, BrdU ELISA)
Method in brief: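 Proliferation was quantified by BrdU ELISA 48 hours after starting culture of 1×10⁵ human PBMC per well with test compound and 2 μg/ml phytohaemagglutinin. Cells came from healthy donors via Ficoll separation and were kept in RPMI1640 with 10% dialysed heat-inactivated FCS.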

[2] = human PBMC, 2 μg/ml PHA, read-out: C: IC50 (IFNγ)
[3] = human PBMC, 2 μg/ml PHA, read-out: B: IC50 (IL-17FF)
[4] = human PBMC, 2 μg/ml PHA, read-out: D: IC50 (Tcell proliferation)
[5] = PHA-stimulated human PBMC, column C, read-out: IC50 (IFNγ)
[6] = PHA-stimulated human PBMC, column B, read-out: IC50 (IL-17FF)
[7] = PHA-stimulated human PBMC, column D, read-out: IC50 (Tcell proliferation)

| Structure (SMILES) | IC50 (IFN-γ; [2]) | IC50 (IL-17FF; [3]) | IC50 (IFN-γ; [5]) | IC50 (IL-17FF; [6]) | IC50 [1, 4] | IC50 [1, 7] |
| --- | --- | --- | --- | --- | --- | --- |
| Fc1cccc(-n2ncc(-c3onc(-c4c(F)cccc4Cl)c3-c3nnn[nH]3)c2C(F)(F)F)c1 [Example 2, 3-(2-chloro-6-fluorophenyl)-5-(1-(3-fluorophenyl)-5-(trifluoromethyl)-1H-pyrazol-4-yl)-4-(1H-tetrazol-5-yl)isoxazole] | 1 to 10 µM | 1 to 10 µM |  |  | 1 to 10 µM |  |
| COc1csc(-c2c(-c3c(F)cccc3Cl)noc2-c2cnn(-c3cccc(F)c3)c2C(F)(F)F)n1 [Example 10, 3-(2-chloro-6-fluorophenyl)-5-(1-(3-fluorophenyl)-5-(trifluoromethyl)-1H-pyrazol-4-yl)-4-(4-methoxythiazol-2-yl)isoxazole] | 0.01 to 0.1 µM | 0.1 to 1 µM |  |  | 0.01 to 0.1 µM |  |
| CSC(=O)c1c(-c2c(F)cccc2Cl)noc1-c1cnn(-c2ccccc2F)c1C(F)(F)F [Example I-130, S-methyl 3-(2-chloro-6-fluorophenyl)-5-(1-(2-fluorophenyl)-5-(trifluoromethyl)-1H-pyrazol-4-yl)isoxazole-4-carbothioate] |  |  | < 0.01 µM | < 0.01 µM |  | < 0.01 µM |
| Fc1cccc(-n2ncc(-c3onc(-c4c(F)cccc4Cl)c3-c3ccco3)c2C(F)(F)F)c1 [Example 17, 3-(2-chloro-6-fluorophenyl)-5-(1-(3-fluorophenyl)-5-(trifluoromethyl)-1H-pyrazol-4-yl)-4-(furan-2-yl)isoxazole] | < 0.01 µM | < 0.01 µM |  |  | < 0.01 µM |  |
| CCOC(=O)c1c(-c2onc(-c3c(F)cccc3Cl)c2C(=O)OC)cnn1-c1ccc(F)cc1F [Example I-35, methyl 3-(2-chloro-6-fluorophenyl)-5-(1-(2,4-difluorophenyl)-5-(ethoxycarbonyl)-1H-pyrazol-4-yl)isoxazole-4-carboxylate] |  |  | 0.1 to 1 µM | 0.1 to 1 µM |  | 0.1 to 1 µM |
| Fc1cccc(Cl)c1-c1noc(-c2cnn(-c3ccncc3)c2C(F)(F)F)c1-c1cnco1 [Example B-33, 3-(2-chloro-6-fluorophenyl)-4-(oxazol-5-yl)-5-(1-(pyridin-4-yl)-5-(trifluoromethyl)-1H-pyrazol-4-yl)isoxazole] | 0.1 to 1 µM | 1 to 10 µM |  |  | 1 to 10 µM |  |
| N#Cc1c(-c2c(F)cccc2Cl)noc1-c1cnn(-c2cccc(Cl)c2)c1C(F)(F)F [Example I-49, 3-(2-chloro-6-fluorophenyl)-5-(1-(3-chlorophenyl)-5-(trifluoromethyl)-1H-pyrazol-4-yl)isoxazole-4-carbonitrile] |  |  | 0.1 to 1 µM | 0.1 to 1 µM |  | 0.1 to 1 µM |
| COC(=O)c1c(-c2cccc(F)c2)noc1-c1cnn(-c2cccc(F)c2)c1C(F)(F)F [Example I-106, methyl 3-(3-fluorophenyl)-5-(1-(3-fluorophenyl)-5-(trifluoromethyl)-1H-pyrazol-4-yl)isoxazole-4-carboxylate] |  |  | 1 to 10 µM | 1 to 10 µM |  | 1 to 10 µM |
| Fc1cccc(Cl)c1-c1noc(-c2cnn(-c3cccc(Cl)c3)c2C(F)(F)F)c1-c1nnco1 [Example B-5, 2-(3-(2-chloro-6-fluorophenyl)-5-(1-(3-chlorophenyl)-5-(trifluoromethyl)-1H-pyrazol-4-yl)isoxazol-4-yl)-1,3,4-oxadiazole] | < 0.01 µM | < 0.01 µM |  |  | < 0.01 µM |  |
| COc1cccc(Cl)c1-c1noc(-c2cnn(-c3ccccc3Cl)c2C(F)(F)F)c1-c1cnco1 [Example B-34, 3-(2-chloro-6-methoxyphenyl)-5-(1-(2-chlorophenyl)-5-(trifluoromethyl)-1H-pyrazol-4-yl)-4-(oxazol-5-yl)isoxazole] | 0.1 to 1 µM | 0.1 to 1 µM |  |  | 0.1 to 1 µM |  |
| Fc1cccc(Cl)c1-c1noc(-c2cnn(-c3cccc(Cl)c3)c2C(F)(F)F)c1-c1nncs1 [Example B-8, 3-(2-chloro-6-fluorophenyl)-5-(1-(3-chlorophenyl)-5-(trifluoromethyl)-1H-pyrazol-4-yl)-4-(1,3,4-thiadiazol-2-yl)isoxazole] | < 0.01 µM | < 0.01 µM |  |  | < 0.01 µM |  |
| Fc1cccc(-n2ncc(-c3onc(-c4c(F)cccc4Cl)c3Br)c2C(F)(F)F)c1 [Example I-137, 4-bromo-3-(2-chloro-6-fluorophenyl)-5-(1-(3-fluorophenyl)-5-(trifluoromethyl)-1H-pyrazol-4-yl)isoxazole] |  |  | 0.1 to 1 µM | 0.1 to 1 µM |  | 0.01 to 0.1 µM |
| Fc1cccc(Cl)c1-c1noc(-c2cnn(-c3cccnc3)c2C(F)(F)F)c1-c1cnco1 [Example B-32, 3-(2-chloro-6-fluorophenyl)-4-(oxazol-5-yl)-5-(1-(pyridin-3-yl)-5-(trifluoromethyl)-1H-pyrazol-4-yl)isoxazole] | 0.1 to 1 µM | 1 to 10 µM |  |  | 1 to 10 µM |  |
| Cc1nnc(-c2c(-c3c(F)cccc3Cl)noc2-c2cnn(-c3ccncc3)c2C(F)(F)F)s1 [Example B-22, 3-(2-chloro-6-fluorophenyl)-4-(5-methyl-1,3,4-thiadiazol-2-yl)-5-(1-(pyridin-4-yl)-5-(trifluoromethyl)-1H-pyrazol-4-yl)isoxazole] | 0.01 to 0.1 µM | 0.1 to 1 µM |  |  | 0.1 to 1 µM |  |
| COC(=O)c1c(-c2c(F)cccc2Cl)noc1-c1cnn(-c2ccccc2F)c1 [Example I-89, Methyl 3-(2-chloro-6-fluorophenyl)-5-[1-(2-fluorophenyl)-1H-pyrazol-4-yl]isoxazole-4-carboxylate] |  |  | 0.1 to 1 µM | 0.01 to 0.1 µM |  | 0.1 to 1 µM |

The next lines start with results.

| IC50 (IFN-γ; [2]) | IC50 (IL-17FF; [3]) | IC50 (IFN-γ; [5]) | IC50 (IL-17FF; [6]) | Structure (SMILES) | IC50 [1, 4] | IC50 [1, 7] |
| --- | --- | --- | --- | --- | --- | --- |
|  |  | 1 to 10 µM | 0.1 to 1 µM | CCOC(=O)c1c(-c2ccncc2F)noc1-c1cnn(-c2cccnc2)c1C(F)(F)F [IB-17, ethyl 3-(3-fluoropyridin-4-yl)-5-(1-(pyridin-3-yl)-5-(trifluoromethyl)-1H-pyrazol-4-yl)isoxazole-4-carboxylate] |  | 1 to 10 µM |
|  |  | 1 to 10 µM | 0.1 to 1 µM | Fc1cccc(Cl)c1-c1noc(-c2cnn(-c3ccncc3)c2C(F)(F)F)c1Br [IB-83, 4-bromo-3-(2-chloro-6-fluorophenyl)-5-(1-(pyridin-4-yl)-5-(trifluoromethyl)-1H-pyrazol-4-yl)isoxazole] |  | 1 to 10 µM |
|  |  | 0.1 to 1 µM | 1 to 10 µM | CCOC(=O)c1c(-c2c(F)cccc2Cl)noc1-c1cnn(-c2ccccc2NC(C)=O)c1C(F)(F)F [IB-1] |  | 1 to 10 µM |
|  |  | 0.1 to 1 µM | 0.1 to 1 µM | CON(C)C(=O)c1c(-c2c(F)cccc2Cl)noc1-c1cnn(-c2ccccc2F)c1C(F)(F)F [IB-53, 3-(2-chloro-6-fluorophenyl)-5-(1-(2-fluorophenyl)-5-(trifluoromethyl)-1H-pyrazol-4-yl)-N-methoxy-N-methylisoxazole-4-carboxamide] |  | 0.1 to 1 µM |
|  |  | 1 to 10 µM | 1 to 10 µM | O=C(Nc1c(-c2c(F)cccc2Cl)noc1-c1cnn(-c2cccc(F)c2)c1C(F)(F)F)C(F)(F)F [IB-22, N-{3-(2-chloro-6-fluorophenyl)-5-[1-(3-fluorophenyl)-5-(trifluoromethyl)-1H-pyrazol-4-yl]-1,2-oxazol-4-yl}-2,2,2-trifluoroacetamide] |  | 1 to 10 µM |
|  |  | 1 to 10 µM | 1 to 10 µM | CON(C)C(=O)c1c(-c2c(F)cccc2Cl)noc1-c1cnn(-c2ccncc2)c1C(F)(F)F [IB-59, 3-(2-chloro-6-fluorophenyl)-N-methoxy-N-methyl-5-(1-(pyridin-4-yl)-5-(trifluoromethyl)-1H-pyrazol-4-yl)isoxazole-4-carboxamide] |  | 1 to 10 µM |
